Measurements published in US20230054976A1, “METHODS FOR INHIBITION OF ALPHA-SYNUCLEIN mRNA USING SMALL MOLECULES” (The Scripps Research Institute, priority 2019, published 2023).

Tested on: SNCA mRNA
Test: ASO-Bind-Map in cells (gapmer ASO, RT-qPCR)
Format: cell-based, human
Conditions: 200 nM, SH-SY5Y cells, RT-qPCR
Experimental: Mapping Synucleozid's binding site in cells with ASO-Bind-Map. SH-SY5Y cells were treated with vehicle (DMSO) or Synucleozid at 60% confluency overnight and were then transfected with a gapmer ASO (200 nM) with Lipofectamine RNAiMAX (Invitrogen) according to the manufacturer's instructions. Mock samples were generated by treating cells with transfection reagent lacking oligonucleotide. RNA extraction, cDNA synthesis and RT-qPCR were performed as described above after 48 h. Primers for SNCA mRNA in this experiment cover sequences upstream and downstream of the IRE; forward primer: [NT]; reverse primer [NT].

Substance | reduction of SNCA mRNA levels by gapmer [%]
5′-TCCTTTACACC-3′ (2'-MOE phosphorothioate gapmer, further chemistry not given here) [ASO(29-39), reference compound] | ~50
5′-CACTCCCAGT-3′ (2'-MOE phosphorothioate gapmer, further chemistry not given here) [ASO(1-10), reference compound] | ~50
